Measurements as given in ChEMBL document CHEMBL1126472, “Multipurpose receptor ligands: -carboline cholecystokinin antagonists” (Bioorg Med Chem Lett, 1993).

Legend:
[1] = biological target: T1, Cholecystokinin receptor type A (Rattus norvegicus, UniProt P30551); assay: Tested for its activity to inhibit the binding of [125I]CCK-33 to Cholecystokinin type A receptor in rat pancreas
T1 sequence (P30551 whole entry): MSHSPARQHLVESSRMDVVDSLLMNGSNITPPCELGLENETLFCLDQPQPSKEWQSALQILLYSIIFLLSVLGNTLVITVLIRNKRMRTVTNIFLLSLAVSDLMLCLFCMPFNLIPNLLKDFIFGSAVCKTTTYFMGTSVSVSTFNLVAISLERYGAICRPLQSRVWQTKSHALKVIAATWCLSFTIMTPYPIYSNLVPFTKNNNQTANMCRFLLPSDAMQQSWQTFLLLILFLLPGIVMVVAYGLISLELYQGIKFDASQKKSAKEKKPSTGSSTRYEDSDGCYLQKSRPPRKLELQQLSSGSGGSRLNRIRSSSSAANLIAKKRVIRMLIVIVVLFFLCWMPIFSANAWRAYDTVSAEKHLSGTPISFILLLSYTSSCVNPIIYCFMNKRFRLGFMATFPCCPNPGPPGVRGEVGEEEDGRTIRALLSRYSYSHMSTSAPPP

[2] = Tested for its activity to inhibit the binding of [125I]gastrin to gastric glands (gastrin) in guinea pig
[3] = Tested for its activity to inhibit the binding of [125I]CCK-33 to Cholecystokinin type B receptor in guinea pig brain

COC(=O)c1cc2c(cn1)[nH]c1ccccc12 [BETA-CCM]
IC50 [1]: > 100 µM

CN1C(=O)[C@@H](NC(=O)Nc2ccc(Cl)cc2)N=C(c2ccccc2)c2ccccc21
IC50 [2]: 0.54 µM | IC50 [3]: 0.41 µM

O=C(Nc1cc2c3ccccc3nc-2c[nH]1)c1ccccc1
IC50 [1]: 7.1 µM

Nc1cc2c(cn1)[nH]c1ccccc12
IC50 [1]: > 100 µM

O=C(Cc1ccccc1)Nc1cc2c3ccccc3nc-2c[nH]1
IC50 [1]: 0.04 µM

CN1C(=O)[C@H](NC(=O)Nc2cc3c4ccccc4nc-3c[nH]2)N=C(c2ccccc2)c2ccccc21
IC50 [1]: 0.089 µM

CN1C(=O)[C@H](NC(=O)Nc2ccc(Cl)cc2)N=C(c2ccccc2)c2ccccc21
IC50 [2]: 0.012 µM | IC50 [3]: 0.0055 µM

O=C(CCc1ccccc1)Nc1cc2c3ccccc3nc-2c[nH]1
IC50 [1]: 0.33 µM

O=C(Nc1cc2c3ccccc3nc-2c[nH]1)c1ccc(Cl)cc1
IC50 [1]: 3.5 µM

O=C(Nc1ccc(Cl)cc1)Nc1cc2c3ccccc3nc-2c[nH]1
IC50 [1]: 0.085 µM

CN1C(=O)C(NC(=O)Cc2c[nH]c3ccccc23)N=C(c2ccccc2)c2ccccc21 (stereo unspecified)
IC50 [1]: 1 µM

O=C(Cc1c[nH]c2ccccc12)Nc1cc2c3ccccc3nc-2c[nH]1
IC50 [1]: 0.024 µM

Cn1c(C(=O)Nc2cc3c4ccccc4nc-3c[nH]2)cc2ccccc21
IC50 [1]: 0.71 µM

CN1C(=O)[C@@H](NC(=O)Nc2cc3c4ccccc4nc-3c[nH]2)N=C(c2ccccc2)c2ccccc21
IC50 [1]: 0.11 µM
